This passage reports IC50 results from patent publication US8946230B2, “Aryl- and heteroaryl- nitrogen-heterocyclic compounds as PDE10 inhibitors” (Amgen Inc., priority 2010, dated 2015).

pIC50: −log10 of the molar value.

The target in the first assay is T1, PDE10 (UniProt Q8CA95).
T1 sequence (Q8CA95 1-790): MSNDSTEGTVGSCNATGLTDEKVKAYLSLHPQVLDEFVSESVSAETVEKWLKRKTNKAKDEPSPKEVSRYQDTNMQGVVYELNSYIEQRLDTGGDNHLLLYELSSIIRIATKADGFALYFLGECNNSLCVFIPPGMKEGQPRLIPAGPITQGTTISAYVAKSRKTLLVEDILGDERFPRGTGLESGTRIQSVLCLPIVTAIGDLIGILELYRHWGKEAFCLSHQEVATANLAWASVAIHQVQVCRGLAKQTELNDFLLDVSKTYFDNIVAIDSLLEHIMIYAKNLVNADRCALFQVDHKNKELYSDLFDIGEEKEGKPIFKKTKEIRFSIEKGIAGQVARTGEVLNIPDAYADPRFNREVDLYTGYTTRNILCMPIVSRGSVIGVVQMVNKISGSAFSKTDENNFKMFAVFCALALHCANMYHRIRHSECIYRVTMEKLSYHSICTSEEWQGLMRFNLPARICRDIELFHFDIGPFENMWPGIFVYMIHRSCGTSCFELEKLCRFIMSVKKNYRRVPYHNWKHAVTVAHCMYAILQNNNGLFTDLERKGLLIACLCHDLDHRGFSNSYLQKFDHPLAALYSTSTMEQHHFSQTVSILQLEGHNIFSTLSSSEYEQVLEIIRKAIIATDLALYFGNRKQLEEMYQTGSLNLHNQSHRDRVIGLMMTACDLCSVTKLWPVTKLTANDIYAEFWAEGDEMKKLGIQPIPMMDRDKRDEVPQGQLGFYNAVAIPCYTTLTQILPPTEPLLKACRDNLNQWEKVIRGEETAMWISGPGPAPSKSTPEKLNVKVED
As to the kind of experiment: PDE10 enzyme inhibition, IMAP TR-FRET assay (Example A: MPDE10A7 Enzyme Activity and Inhibition). The format is biochemical. The following applies: Table 1A, Examples 11-56; read-out: PDE10 IC50. As to the method:
MPDE10A7 Enzyme Activity and Inhibition Enzyme Activity. An IMAP TR-FRET assay was used to analyze the enzyme activity (Molecular Devices Corp., Sunnyvale Calif.). 5 μL of serial diluted PDE10A (BPS Bioscience, San Diego, Calif.) or tissue homogenate was incubated with equal volumes of diluted fluorescein labeled cAMP or cGMP for 60 min in 384-well polystyrene assay plates (Corning, Corning, N.Y.) at room temperature. After incubation, the reaction was stopped by adding 60 μL of diluted binding reagents and was incubated for 3 hours to overnight at room temperature. The plates were read on an Envision (Perkin Elmer, Waltham, Mass.) for time resolved fluorescence resonance energy transfer. The data were analyzed with GraphPad Prism (La Jolla, Calif.). Enzyme Inhibition. To check the inhibition profile, 5 μL of serial diluted compounds were incubated with 5 μL of diluted PDE10 enzyme (BPS Bioscience, San Diego, Calif.) or tissue homogenate in a 384-well polystyrene assay plate (Corning, Corning, N.Y.) for 30 min at room temperature. After incubation, 10 μL of diluted fluorescein labeled cAMP or cGMP substrate were added and incubated for 60 min at room temperature. The reaction was stopped by adding 60 μL of diluted binding reagents and plates were read on an Envision (Perkin Elmer, Waltham, Mass.) for time resolved fluorescence resonance energy transfer. The data were analyzed with GraphPad Prism (La Jolla, Calif.).
For orientation: Time-resolved FRET reads energy transfer from a long-lived donor to a nearby acceptor.
Take `CC(C)CNC(=O)c1cccnc1N1CC(c2nc3cc(Cl)ccc3[nH]2)C1` [Example 22, 2-[3-(5-chloro-1H-benzoimidazol-2-yl)-azetidin-1-yl]-N-isobutyl-nicotinamide]: the pIC50 (commonly the negative decadic logarithm of the IC50, by convention in mol/L) was 5.65.
For the compound `N#Cc1ccc2[nH]c(C3CCN(c4ncccc4Cl)C3)nc2c1` (stereo not shown) [Example 11, 2-[1-(3-chloro-pyridin-2-yl)-pyrrolidin-3-yl]-1H-benzoimidazole-5-carbonitrile], the negative-log IC50 (pIC50) was 6.51.
Take `Cc1ccc2[nH]c(C3CN(c4ncccc4Cl)C3)nc2c1` [Example 47, 2-(1-(3-chloropyridin-2-yl)azetidin-3-yl)-5-methyl-1H-benzo[d]imidazole]: the pIC50 was 5.42.
Still for that read-out and setting: the result for `Clc1ccc2[nH]c(C3CN(c4nccnc4C4=CCOCC4)C3)nc2c1` [Example 51, 5-chloro-2-(1-(3-(3,6-dihydro-2H-pyran-4-yl)pyrazin-2-yl)azetidin-3-yl)-1H-benzo[d]imidazole] reads 6.35.
Take `O=C(NC[C@@H]1CCCO1)c1nccnc1N1CC(c2nc3cc(Cl)ccc3[nH]2)C1` [Example 38, 3-[3-(5-chloro-1H-benzoimidazol-2-yl)-azetidin-1-yl]-pyrazine-2-carboxylic acid (tetrahydro-furan-2-ylmethyl)-amide]: the pIC50 is 5.67.
For `Cc1ccccc1-c1nccnc1N1CC(c2nc3cc(Cl)ccc3[nH]2)C1` [Example 24, 5-chloro-2-[1-(3-o-tolyl-pyrazin-2-yl)-azetidin-3-yl]-1H-benzoimidazole], the pIC50 is 7.09.
Same read-out and setting: as for `COc1cccc(-c2nccnc2N2CC(c3nc4cc(Cl)ccc4[nH]3)C2)c1` [Example 28, 5-chloro-2-{1-[3-(3-methoxy-phenyl)-pyrazin-2-yl]-azetidin-3-yl}-1H-benzoimidazole], the figure is 7.59.
`COc1ccc(-c2nccnc2N2CC(c3nc4cc(Cl)ccc4[nH]3)C2)cc1` [Example 29, 5-chloro-2-{1-[3-(4-methoxy-phenyl)-pyrazin-2-yl]-azetidin-3-yl}-1H-benzoimidazole]: the pIC50 was 6.96.
For the compound `N#Cc1ccc2[nH]c(C3CCN(c4nccnc4-c4ccccc4)C3)nc2c1` (stereo not shown) [Example 15, 2-[1-(3-phenyl-pyrazin-2-yl)-pyrrolidin-3-yl]-1H-benzoimidazole-5-carbonitrile], the pIC50 is 6.34.
Turning to `Clc1ccc2[nH]c(C3CN(c4nccnc4N4CCOCC4)C3)nc2c1` [Example 50, 4-(3-(3-(5-chloro-1H-benzo[d]imidazol-2-yl)azetidin-1-yl)pyrazin-2-yl)morpholine], the pIC50 was 6.87.
`Clc1ccc2[nH]c(C3CN(c4nccnc4Oc4ccccc4)C3)nc2c1` [Example 42, 5-chloro-2-(1-(3-phenoxypyrazin-2-yl)azetidin-3-yl)-1H-benzo[d]imidazole]: the pIC50 is 7.09.
In the case of `O=C(NCC1CCOCC1)c1cccnc1N1CC(c2nc3cc(Cl)ccc3[nH]2)C1` [Example 23, 2-[3-(5-chloro-1H-benzoimidazol-2-yl)-azetidin-1-yl]-N-(tetrahydro-pyran-4-ylmethyl)-nicotinamide], the pIC50 was 4.42.
`O=C(c1cccnc1N1CC(c2nc3cc(Cl)ccc3[nH]2)C1)N1CCC1` [Example 16, Azetidin-1-yl-{2-[3-(5-chloro-1H-benzoimidazol-2-yl)-azetidin-1-yl]-pyridin-3-yl}-methanone]: the pIC50 is 5.93.
Still for that read-out and setting: the result for `O=C(c1cccnc1N1CC(c2nc3cc(Cl)ccc3[nH]2)C1)N1CCOCC1` [Example 17, {2-[3-(5-chloro-1H-benzoimidazol-2-yl)-azetidin-1-yl]-pyridin-3-yl}-morpholin-4-yl-methanone] reads 4.48; that for `Cc1cccc(-c2nccnc2N2CC(c3nc4cc(Cl)ccc4[nH]3)C2)c1` [Example 25, 5-chloro-2-[1-(3-m-tolyl-pyrazin-2-yl)-azetidin-3-yl]-1H-benzoimidazole], 7.82; that for `Clc1ccc2[nH]c(C3CN(c4nccnc4N4CCCCC4)C3)nc2c1` [Example 44, 5-chloro-2-(1-(3-(piperidin-1-yl)pyrazin-2-yl)azetidin-3-yl)-1H-benzo[d]imidazole], 6.04.
Turning to `Clc1ccc2[nH]c(C3CN(c4nccnc4-c4cccnc4)C3)nc2c1` [Example 33, 5-chloro-2-[1-(3-pyridin-3-yl-pyrazin-2-yl)-azetidin-3-yl]-1H-benzoimidazole], the pIC50 is 6.27.
The same measure, in the same setting: the result for `COc1nccnc1N1CC(c2nc3cc(Cl)ccc3[nH]2)C1` [Example 45, 5-chloro-2-(1-(3-methoxypyrazin-2-yl)azetidin-3-yl)-1H-benzo[d]imidazole] reads 6.30; that for `O=C(NC[C@H]1CCCO1)c1nccnc1N1CC(c2nc3cc(Cl)ccc3[nH]2)C1` [Example 37, 3-[3-(5-chloro-1H-benzoimidazol-2-yl)-azetidin-1-yl]-pyrazine-2-carboxylic acid (tetrahydro-furan-2-ylmethyl)-amide], 5.60; that for `Clc1ccc2[nH]c(C3CN(c4ncccc4OC4CCOCC4)C3)nc2c1` [Example 49, 5-chloro-2-(1-(3-(tetrahydro-2H-pyran-4-yloxy)pyridin-2-yl)azetidin-3-yl)-1H-benzo[d]imidazole], 6.77.
`Clc1ccc2[nH]c(C3CN(c4nc(Cl)ncc4Cl)C3)nc2c1` [Example 55, 5-chloro-2-(1-(2,5-dichloropyrimidin-4-yl)azetidin-3-yl)-1H-benzo[d]imidazole]: the pIC50 was 6.28.
Still for that read-out and setting: the result for `Cc1ccc(-c2nccnc2N2CC(c3nc4cc(Cl)ccc4[nH]3)C2)cc1` [Example 26, 5-chloro-2-[1-(3-p-tolyl-pyrazin-2-yl)-azetidin-3-yl]-1H-benzoimidazole] reads 6.87.

The same assay, now with this note: Table 2A, Examples 61-64; read-out: IC50.
On to `CC1CCN(c2nccnc2N2CC(c3ccc4ccccc4n3)C2)CC1` [Example 61, 2-{1-[3-(4-Methyl-piperidin-1-yl)-pyrazin-2-yl]-azetidin-3-yl}-quinoline], for which the pIC50 was 5.51.
Turning to `OCC1CCN(c2nccnc2N2CC(c3ccc4ccccc4n3)C2)CC1` [Example 62, {1-[3-(3-Quinolin-2-yl-azetidin-1-yl)-pyrazin-2-yl]-piperidin-4-yl}-methanol], the pIC50 is 6.45.

The assay is the same for the next values; noted with them: read-out: IC50.
For `O=C(c1cccnc1N1CC(c2nc3cc(Cl)ccc3[nH]2)C1)N1CC(O)C1` [Example 3, {2-[3-(5-CHLORO-1H-BENZOIMIDAZOL-2-YL)-AZETIDIN-1-YL]-PYRIDIN-3-YL}-(3-HYDROXY-AZETIDIN-1-YL)-METHANONE], the pIC50 is 6.26.
For `Clc1ccc2[nH]c(C3CN(c4cc(OC5CCOCC5)ccn4)C3)nc2c1` [Example 5, 5-CHLORO-2-(1-(4-(TETRAHYDRO-2H-PYRAN-4-YLOXY)PYRIDIN-2-YL)AZETIDIN-3-YL)-1H-BENZO[D]IMIDAZOLE], the pIC50 is 5.96.
As to `CNC(=O)c1nccnc1N1CC(c2nc3cc(Cl)ccc3[nH]2)C1` [Example 4, 3-[3-(5-CHLORO-1H-BENZOIMIDAZOL-2-YL)-AZETIDIN-1-YL]-PYRAZINE-2-CARBOXYLIC ACID METHYLAMIDE], the pIC50 was 5.41.
As for `Clc1ccc2[nH]c(C3CN(c4ccnc(N5CCOCC5)n4)C3)nc2c1` [Example 1D, 4-(4-(3-(5-CHLORO-1H-BENZO[D]IMIDAZOL-2-YL)AZETIDIN-1-YL)PYRIMIDIN-2-YL)MORPHOLINE], the pIC50 was 6.19.
With `Clc1ccc2[nH]c(C3CN(c4nccnc4C4CCOCC4)C3)nc2c1` [Example 8, 5-CHLORO-2-(1-(3-(TETRAHYDRO-2H-PYRAN-4-YL)PYRAZIN-2-YL)AZETIDIN-3-YL)-1H-BENZO[D]IMIDAZOLE], the pIC50 was 5.94.
On the same count and under the same terms, the result for `Clc1ccc2[nH]c(C3CN(c4cc(C5CCOCC5)ccn4)C3)nc2c1` [Example 9, 5-CHLORO-2-(1-(4-(TETRAHYDRO-2H-PYRAN-4-YL)PYRIDIN-2-YL)AZETIDIN-3-YL)-1H-BENZO[D]IMIDAZOLE] reads 5.93; that for `c1cnc(N2CC(c3ccc4ccccc4n3)C2)c(N2CCCCC2)c1` [Example 59, 2′-(3-QUINOLIN-2-YL-AZETIDIN-1-YL)-3,4,5,6-TETRAHYDRO-2H-[1,3′]BIPYRIDINYL], 7.17.
